The labels stand for the following.
B1: TGFβ2: TGFβ agonist (growth factor) (protein, UniProt P61812 303-414, looked up)
Transforming growth factor …: ALDAAYCFRNVQDNCCLRPLYIDFKRDLGWKWIHEPKGYNANFCAGACPYLWSSDTQHSRVLSLYNTINPEASASPCCVSQDLEPLTILYYIGKTPKIEQLSNMIVKSCKCS

One data set concerns SC-β cells. Briefly: Static glucose-stimulated insulin secretion of stage 6 cells. The following applies: HUES8 hESC and 1013-4FA hiPSC lines, vs sh-ctrl. Format: cell-based, human. The protocol:
(§1) Gene KD was performed similar to as previously described (Velazco-Cruz et al., 2019). pLKO.1 TRC plasmids containing shRNA sequences targeting GFP (sh-ctrl) and human SIX2 (sh-SIX2-1 and sh-SIX2-2) were received from the RNAi Core at the Washington University. sh-ctrl, […] (SEQ ID NO: 35); sh-SIX2-1, […] (SEQ ID NO: 36); sh-SIX2-2, […] (SEQ ID NO: 37). Viral particles were generated using Lenti-X 293T cells (Takara; 632180) cultured in DMEM (MilliporeSigma; D6429) with 10% heat inactivated fetal bovine serum (MilliporeSigma; F4135). Confluent Lenti-X 293T cells were transfected with […] of shRNA plasmid, […] of psPAX2 (Addgene; 12260), and 1.5 μg pMD2.G (Addgene; 12259) packaging plasmids in 600 μL of Opti-MEM (Life Technologies; 31985-070) and 48 μL of Polyethylenimine ‘Max’ MW 40,000 Da (Polysciences; 24765-2). 16 hours post transfection media was switched. Viral containing supernatant was collected at 96 hours post transfection and concentrated using Lenti-X concentrator (Takara; 631232). Collected lentivirus was tittered using Lenti-X qRT-PCR Titration Kit (Takara; 631235). […]
Measurements were performed as previously described (Velazco-Cruz et al., 2019). […] Insulin was quantified with a human insulin ELISA (ALPCO; 80-INSHU-E10.1). Cell quantification was performed by dispersing with trypLE and counting with the Vi-Cell XR.
For “sh-SIX2-1: lentiviral pLKO.1 TRC shRNA targeting human SIX2, CAACGAGAACTCCAATTCTAA (SEQ ID NO: 36)”, the “static glucose-stimulated insulin secretion” value was “significant reductions”.

For “sh-SIX2-2: lentiviral pLKO.1 TRC shRNA targeting human SIX2, GAGCACCTTCACAAGAATGAA (SEQ ID NO: 37)”, the “static glucose-stimulated insulin secretion” value is reported as “significant reductions”.

For the next data set, the system named is SIX2 gene expression. The data set is described as follows: SC-β cells treated with a library of compounds to identify SIX2 regulators. To be noted: FIG. 11. It counts as cell-based, human. The protocol: FIG. 11. Regulators of SIX2. SC-β cells were treated with a library of compound to identify SIX2 regulators. […] (B) Negative Regulators of SIX2 gene expression. (C) Flow cytometry of SC-β cells treated with SIX2 regulators.
Here, regulators of SIX2 gene expression were discovered (see e.g., FIG. 11). It was discovered that (1) regulators of SIX2 affect the % of SC-β cells generated (see e.g., FIG. 12); (2) SIX2 regulators influence SC-β cell function (see e.g., FIG. 13); (3) SIX2 is expressed by only a fraction of C-peptide positive cells (SC-β cells) (see e.g., FIG. 12A, FIG. 2B); and (4) SIX2+ cells secrete insulin in response to glucose when single cell dispersed and plated down (see e.g., FIG. 14).
Take `Nc1nccc2c1ncn2[C@@H]1C=C(CO)[C@@H](O)[C@H]1O` [3-Deazaneplanocin A]: the “regulation of SIX2 expression in SC-β cells” value (from here on “regulation of SIX2 expression”) is recorded as “positive regulator”.

As to `Nc1ncn([C@@H]2O[C@H](CO)[C@@H](O)[C@H]2O)c(=O)n1` [5-Azacytidine], the “regulation of SIX2 expression” value was “positive regulator”.

On to `Cc1c[nH]c(-c2cnc(NCCNc3ccc(C#N)cn3)nc2-c2ccc(Cl)cc2Cl)n1` [CHIR99021], for which the “regulation of SIX2 expression” value is listed as “positive regulator”.

On to `Cc1ccc(-n2nc(C(C)(C)C)cc2NC(=O)Nc2ccc(OCCN3CCOCC3)c3ccccc23)cc1` [doramapimod], for which the “regulation of SIX2 expression” value was “positive regulators”.

Take AZD4547: the “regulation of SIX2 expression” value is recorded as “positive regulators”.

Consider TGFβ1: TGFβ agonist (growth factor), for which the “regulation of SIX2 expression” value is “positive regulators”.

In the case of B1, the “regulation of SIX2 expression” value was “positive regulators”.

For the next data set, the system named is SC-β cells. The data set is described as follows: Dynamic glucose-stimulated insulin secretion of stage 6 cells (perifusion). It counts as cell-based, human. The following applies: HUES8 hESC and 1013-4FA hiPSC lines, vs sh-ctrl. The protocol: as §1
Measurements were performed as previously described (Velazco-Cruz et al., 2019). […] Insulin was quantified with a human insulin ELISA (ALPCO; 80-INSHU-E10.1). DNA quantification was performed by lysing the cells and measuring with the Quant-iT Picogreen dsDNA assay kit (Invitrogen; P7589). […]
Consider “sh-SIX2-1: lentiviral pLKO.1 TRC shRNA targeting human SIX2, CAACGAGAACTCCAATTCTAA (SEQ ID NO: 36)”, for which the “dynamic glucose-stimulated insulin secretion” value is given as “significant reductions”.

As to “sh-SIX2-2: lentiviral pLKO.1 TRC shRNA targeting human SIX2, GAGCACCTTCACAAGAATGAA (SEQ ID NO: 37)”, the “dynamic glucose-stimulated insulin secretion” value was “significant reductions”.

The values above are taken from patent US20230014430A1, “Methods and Compositions for Generating Functionally Mature Beta Cells and Uses Thereof” (Washington University, priority 2019, published 2023).
